Source: patent US20240182475A1 (Université de Lausanne, priority 2021, published 2024)

Tests used:
recombinant human CSE = recombinant human CSE (Homo sapiens, UniProt P32929); experiment: CSE activity (AzMC probe assay), H2S production by recombinant human CSE; type: biochemical; conditions: for CSE activity (AZMC probe assay) % of activation: (RFU compound max - RFU compound 0/RFU CSE 2 ug - RFU compound 0)*100; for EC50: EC50 calculated by the four-parameter logistic model
Experimental: The activity of recombinant human CSE (rCSE) was tested in the presence of C5, compound 8 (50 uM), Z20 compound 13 (50 uM) or vehicle (DMSO). Briefly, compounds were added in reaction buffer (50 mM Tris-HCl, pH 8) containing 2 μg of rCSE, 10 mM CSE substrate L-cysteine, 5 uM pyridoxal 5′-phosphate (PLP). After addition of 10 μM of the H2S sensitive fluorescent probe 7-azido-4-methylcoumarin (AzMC) in a total volume of 100 μl, fluorescence was immediately measured in kinetic mode for 2 h at 37° C. with SpectraMax M5 reader, with excitation and emission wavelengths of 365 nm and 450 nm, respectively. Statistical analysis was determined using simple linear regression with p<0.0001 for C5 vs. vehicle and p<0.0002 for Z20 vs. vehicle.
Recombinant human CSE (1 μg/well) was incubated with various concentrations of compounds (all in final 0.1% DMSO), or with 0.1% DMSO as a control, in 10 mM sodium phosphate buffer pH 8.2. Next, 10 mM L-cysteine and 1 mM PLP and 10 μM of the probe AzMC were then added to reach 100 μL total volume. Fluorescence was measured for 3 h at 37° C. with excitation and emission wavelengths of 365 nm and 450 nm, respectively, in a 96-well half area black plate with transparent bottom.
Dose-response curve of each compound was performed, using triplicate wells for each tested doses. The background (10 mM sodium phosphate buffer with L-cysteine, PLP and AzMC) was subtracted from all values. Each mean value was converted to percent activity (0% defined as the smallest mean in each data set, 100% defined as the highest mean in each data set). The data were normalized using the four parameter logistic model (4PL) equation to calculate EC50 using GraphPad Prism.

MOVAS cells [1] = experiment: Cytotoxicity assay, LDH release; type: cell-based, mouse
Experimental: A) Alizarin red staining of MOVAS cells stimulated with CPP for 24 h in DMEM+10% FBS in presence of different concentrations of compound 22401. […] The background (Alizarin red staining obtained with cells in the absence of CPP) was subtracted from all values. B) Percentage of cytotoxicity, as measured by LDH release, in MOVAS cells in the same conditions as A). Statistical analysis was determined using one-way ANOVA with *p<0.05, **p<0.01, ***p<0.001.
Measurement of lactate dehydrogenase (LDH) as a means of cytotoxicity assay was performed with using CytoTox-ONE Homogeneous Membrane Integrity Assay (Promega) according to the manufacturer's instructions. Values were calculated as percentage of cytotoxicity using the following formula: [(value in sample)−(background)]/[(value in Triton X-100-treated sample)−(background)]×100.

MOVAS cells [2] = experiment: MOVAS cell calcification assay (Alizarin red); type: cell-based, mouse; conditions: Mus musculus, MOVAS, read-out: Calcification assay Max calcification inhibition (%) at the indicated dose of compound
Experimental: A) Alizarin red staining of MOVAS cells stimulated with sCPP for 24 h in DMEM+10% FBS and treated or not with 50 uM of compounds. […] Statistical analysis was determined using one-way ANOVA with ***p<0.001. C) Percentage of cytotoxicity (LDH %) in MOVAS treated or not with compounds for 24 h. D) MOVAS cells were seeded onto half-area 96-well plate and incubated overnight. Then C5 or C6 at 50 uM or vehicle (DMSO), L-cysteine at 10 mM, PLP at 5 uM and the H2S sensitive fluorescent probe AzMC at 10 μM were added. The fluorescence was immediately measured in kinetic mode for 2 h at 37° C. with SpectraMax M5 reader, with excitation and emission wavelengths of 365 nm and 450 nm, respectively.
A) Alizarin red staining of Movas cells stimulated with sCPP for 24 h in DMEM+10% FBS and treated or not with 50 uM of Z20. […] C) Percentage of cytotoxicity (LDH %) in murine chondrocytes treated or not with Z20 for 24 h. Statistical analysis was determined using one-way ANOVA with ***p<0.001.
Alizarin red staining of MOVAS cells stimulated with sCPP for 24 h in DMEM+10% FBS and treated or not with different concentrations of compounds (A: C6) and (B: Z20). The graphs show Alizarin red absorbance at 570-630 nm. Statistical analysis was determined using one-way ANOVA with *p<0.05, **p<0.01, ***p<0.001.
CPP were generated by preparing 20 ml DMEM containing 10% FBS, 1 mmol/L CaCl2, 3.5 mmol/L inorganic phosphate (1.36 mmol/L NaH2PO4 and 2.14 mmol/L Na2HPO4) (Aghagolzadeh et al. Atherosclerosis, 2016). After 7 days incubation at 37° C., the suspension was centrifuged at 25000 g for 2 h at 4° C., and the pellet containing CPP was resuspended in 1 ml DMEM and stored at −20° C. until further use.
Mouse vascular smooth muscle cell line (MOVAS) cells were cultured according to the manufacturer's guidelines in DMEM culture medium supplemented with 10% FBS. Cells were cultured at 37° C. in a humidified atmosphere with 5% CO2. All cell culture experiments in 96-well plates were performed in triplicates and were repeated independently two times.
For calcification experiments, cells were seeded in 96-well plates at a density of 50,000 cells/well and left to attach for 18 h. Calcification of cell monolayers was induced by CPP (equivalent to 50 μg Ca/mL) for 24 h at 37° C., 5% CO2 in presence of various concentrations of compounds (all in final 0.1% DMSO), or of 0.1% DMSO as a control, to reach a final volume of 200 μl/well. Calcium deposition was assessed by 0.5% w/v Alizarin Red staining (pH 4.2). Briefly, after PBS washing, methanol fixation for 10 min at 4° C., and milli-Q water washing, cells were incubated for 60 min with 200 μL Alizarin Red solution and then washed four times with milli-Q water. Quantification was performed after crystal dissolution with cetylpyridinium chloride (10%) for 18 h. The absorbance was measured at 570 and 630 nm using the Spectramax M5e reader (Molecular Devices). The background (alizarin red staining obtained with cells in the absence of CPP) was subtracted from all values.

recombinant human CSE, sequence (P32929 whole entry): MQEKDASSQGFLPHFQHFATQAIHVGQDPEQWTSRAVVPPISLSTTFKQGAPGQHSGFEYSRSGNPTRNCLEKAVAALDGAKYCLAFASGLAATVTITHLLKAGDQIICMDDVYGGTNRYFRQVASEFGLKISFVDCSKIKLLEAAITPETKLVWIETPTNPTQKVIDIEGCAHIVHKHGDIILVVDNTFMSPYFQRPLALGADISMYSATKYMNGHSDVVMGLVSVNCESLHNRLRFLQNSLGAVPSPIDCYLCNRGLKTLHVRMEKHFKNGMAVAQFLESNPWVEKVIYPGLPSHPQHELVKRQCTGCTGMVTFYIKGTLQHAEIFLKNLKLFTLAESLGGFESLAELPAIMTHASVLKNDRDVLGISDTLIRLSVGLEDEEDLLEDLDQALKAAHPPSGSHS

c1cnc(Nc2cnn(CC3CCCCC3)c2)nc1 [Compound 31, N-(1-(cyclohexylmethyl)-1H-pyrazol-4-yl)pyrimidin-2-amine]
CSE activity (AZMC probe assay) % of activation (recombinant human CSE): 61% | EC50 (recombinant human CSE): 67.4 nM | Cytotoxicity assay LDH release (% of cytotoxicity) (MOVAS cells [1]; no dose given): 15%

Cn1cc(Nc2ncccn2)cn1 [Compound 26, N-(1-methyl-1H-pyrazol-4-yl)pyrimidin-2-amine]
CSE activity (AZMC probe assay) % of activation (recombinant human CSE): 57% | EC50 (recombinant human CSE): 38.5 nM | Cytotoxicity assay LDH release (% of cytotoxicity) (MOVAS cells [1]; no dose given): 20%

c1cnc(Nc2cnn(CC3CCCO3)c2)nc1 (centres unmarked) [Compound 32]
CSE activity (AZMC probe assay) % of activation (recombinant human CSE): 76% | EC50 (recombinant human CSE): 35.2 nM | inhibition at 2 µM (MOVAS cells [2]; at 2 uM): 36% | Cytotoxicity assay LDH release (% of cytotoxicity) (MOVAS cells [1]; at 2 uM): 15% at

O=C(Nc1cnn(CC2CCCO2)c1)c1cccc2[nH]ccc12 (centres unmarked) [Compound 44, N-(1-((tetrahydrofuran-2-yl)methyl)-1H-pyrazol-4-yl)-1H-indole-4-carboxamide]
CSE activity (AZMC probe assay) % of activation (recombinant human CSE): 73% | EC50 (recombinant human CSE): 29 nM | inhibition at 0.3 µM (MOVAS cells [2]): 37% | Cytotoxicity assay LDH release (% of cytotoxicity) (MOVAS cells [1]; at 0.3 uM): 12% at

CCn1cnc2c(Nc3cnn(CC4CCCO4)c3)ncnc21 (centres unmarked) [Compound 19, 9-ethyl-N-(1-((tetrahydrofuran-2-yl)methyl)-1H-pyrazol-4-yl)-9H-purin-6-amine]
CSE activity (AZMC probe assay) % of activation (recombinant human CSE): 28% | EC50 (recombinant human CSE): 41.8 nM | inhibition at 50 µM (MOVAS cells [2]; at 50 uM): 48% | Cytotoxicity assay LDH release (% of cytotoxicity) (MOVAS cells [1]; at 50 uM): 15% at

O=[N+]([O-])c1ccc(Nc2cnn(CC3CCCO3)c2)cc1 (centres unmarked) [Compound 35, N-(4-nitrophenyl)-1-((tetrahydrofuran-2-yl)methyl)-1H-pyrazol-4-amine]
CSE activity (AZMC probe assay) % of activation (recombinant human CSE): 109% | EC50 (recombinant human CSE): 43 nM | inhibition at 0.3 µM (MOVAS cells [2]): 23% | Cytotoxicity assay LDH release (% of cytotoxicity) (MOVAS cells [1]; at 0.3 uM): 4% at

CCn1cnc2c(Nc3cnn(CCOC)c3)ncnc21 [Compound 47, 9-ethyl-N-(1-(2-methoxyethyl)-1H-pyrazol-4-yl)-9H-purin-6-amine]
CSE activity (AZMC probe assay) % of activation (recombinant human CSE): 106% | EC50 (recombinant human CSE): 38.9 nM | inhibition at 20 µM (MOVAS cells [2]): 37% | Cytotoxicity assay LDH release (% of cytotoxicity) (MOVAS cells [1]; at 20 uM): 25% at

CCn1cnc2c(Nc3cnn(Cc4ccccn4)c3)ncnc21 [Compound 34, 9-ethyl-N-(1-(pyridin-2-ylmethyl)-1H-pyrazol-4-yl)-9H-purin-6-amine]
CSE activity (AZMC probe assay) % of activation (recombinant human CSE): 35% | EC50 (recombinant human CSE): 31.7 nM | Cytotoxicity assay LDH release (% of cytotoxicity) (MOVAS cells [1]; no dose given): 20%

c1cc(Nc2cnn(CC3CCCO3)c2)ncn1 (centres unmarked) [Compound 20, N-(1-((tetrahydrofuran-2-yl)methyl)-1H-pyrazol-4-yl)pyrimidin-4-amine]
CSE activity (AZMC probe assay) % of activation (recombinant human CSE): 46% | EC50 (recombinant human CSE): 21 nM | inhibition at 20 µM (MOVAS cells [2]): 23% | Cytotoxicity assay LDH release (% of cytotoxicity) (MOVAS cells [1]; at 20 uM): 16% at

CCn1cnc2c(Nc3cnn(CC4CCCCC4)c3)ncnc21 [Compound 30, N-(1-(cyclohexylmethyl)-1H-pyrazol-4-yl)-9-ethyl-9H-purin-6-amine]
CSE activity (AZMC probe assay) % of activation (recombinant human CSE): 39% | EC50 (recombinant human CSE): 31.8 nM | inhibition at 20 µM (MOVAS cells [2]): 80% | Cytotoxicity assay LDH release (% of cytotoxicity) (MOVAS cells [1]; at 20 uM): 5% at

CCn1cnc2c(Nc3cnn(C)c3)ncnc21 [Compound 25, 9-ethyl-N-(1-methyl-1H-pyrazol-4-yl)-9H-purin-6-amine]
CSE activity (AZMC probe assay) % of activation (recombinant human CSE): 56% | EC50 (recombinant human CSE): 26 nM | Cytotoxicity assay LDH release (% of cytotoxicity) (MOVAS cells [1]; no dose given): 20%

O=C(Nc1cnn(CC2CCCO2)c1)c1cccc(F)c1 (centres unmarked) [Compound 39, 3-fluoro-N-(1-((tetrahydrofuran-2-yl)methyl)-1H-pyrazol-4-yl)benzamide]
CSE activity (AZMC probe assay) % of activation (recombinant human CSE): 33% | EC50 (recombinant human CSE): 137 nM | inhibition at 20 µM (MOVAS cells [2]): 30% | Cytotoxicity assay LDH release (% of cytotoxicity) (MOVAS cells [1]; at 20 uM): 8% at

CCCn1cc(Nc2ncnc3c2ncn3CC)cn1 [Compound 33, 9-ethyl-N-(1-propyl-1H-pyrazol-4-yl)-9H-purin-6-amine]
CSE activity (AZMC probe assay) % of activation (recombinant human CSE): 59% | EC50 (recombinant human CSE): 19.7 nM | Cytotoxicity assay LDH release (% of cytotoxicity) (MOVAS cells [1]; no dose given): 20%

N#Cc1cccc(C(=O)Nc2cnn(CC3CCCO3)c2)c1 (centres unmarked) [Compound 45, 3-cyano-N-(1-((tetrahydrofuran-2-yl)methyl)-1H-pyrazol-4-yl)benzamide]
CSE activity (AZMC probe assay) % of activation (recombinant human CSE): 59% | EC50 (recombinant human CSE): 39.6 nM | inhibition at 5 µM (MOVAS cells [2]; at 5 uM): 57% | Cytotoxicity assay LDH release (% of cytotoxicity) (MOVAS cells [1]; at 5 uM): 12% at

O=C(Nc1cnn(CC2CCCO2)c1)c1ccc2ccccc2c1 (centres unmarked) [Compound 40, N-(1-((tetrahydrofuran-2-yl)methyl)-1H-pyrazol-4-yl)-2-naphthamide]
CSE activity (AZMC probe assay) % of activation (recombinant human CSE): 65% | EC50 (recombinant human CSE): 4.4 nM | inhibition at 0.3 µM (MOVAS cells [2]): 56% | Cytotoxicity assay LDH release (% of cytotoxicity) (MOVAS cells [1]; at 0.3 uM): 10% at

O=C(Nc1cnn(CC2CCCO2)c1)c1ccccc1 (centres unmarked) [Compound 36, N-(1-((tetrahydrofuran-2-yl)methyl)-1H-pyrazol-4-yl)benzamide]
CSE activity (AZMC probe assay) % of activation (recombinant human CSE): 62% | EC50 (recombinant human CSE): 15.8 nM | inhibition at 0.07 µM (MOVAS cells [2]; at 0.07 uM): 42% | Cytotoxicity assay LDH release (% of cytotoxicity) (MOVAS cells [1]; at 0.07 uM): 12% at
